Measurements from patent US10294202B2, “Pyrrolidinones as herbicides” (FMC Corporation, priority 2013, dated 2019).

Columns and labels:
[1] = tested on: corn; assay: Test C pre-/postemergence herbicide test; format: in vivo, Zea mays
Procedure, shortened: (§1)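 Greenhouse pots; formulation = non-phytotoxic solvent mix + surfactant. PRE onto seeds in loam:sand; POST at 1–4 leaves (2–18 cm) in peat moss/vermiculite medium. Read-out: visual % control vs untreated, day 13–15.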

[2] = tested on: barnyardgrass; assay: Test C pre-/postemergence herbicide test; format: in vivo, Echinochloa crus-galli
Procedure, shortened: as §1

[3] = tested on: velvetleaf; assay: Test C pre-/postemergence herbicide test; format: in vivo, Abutilon theophrasti
Procedure, shortened: as §1

[4] = tested on: galium; assay: Test C pre-/postemergence herbicide test; format: in vivo, Galium aparine; conditions: Preemergence
Procedure, shortened: as §1

[5] = tested on: nutsedge, yellow; assay: Test C pre-/postemergence herbicide test; format: in vivo, Cyperus esculentus
Procedure, shortened: as §1

[6] = tested on: morningglory; assay: Test C pre-/postemergence herbicide test; format: in vivo, Ipomoea coccinea
Procedure, shortened: as §1

[7] = tested on: pigweed; assay: Test A pre-/postemergence herbicide test; format: in vivo, Amaranthus retroflexus
Procedure, shortened: (§2)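 Greenhouse pot test with pre- and postemergence application of surfactant-containing solvent formulations. Postemergence plants were 2–10 cm, one- to two-leaf stage. Response scored visually after ~10 days, 0 (no effect) to 100 (complete control).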

[8] = tested on: ryegrass, Italian; assay: Test C pre-/postemergence herbicide test; format: in vivo, Lolium multiflorum
Procedure, shortened: as §1

[9] = tested on: wheat; assay: Test A pre-/postemergence herbicide test; format: in vivo, Triticum aestivum; conditions: Postemergence
Procedure, shortened: as §2

[10] = tested on: blackgrass; assay: Test C pre-/postemergence herbicide test; format: in vivo, Alopecurus myosuroides
Procedure, shortened: as §1

[11] = Postemergence, 31 g ai/ha, scale 0 to 100 (0 no effect, 100 complete control)
[12] = Postemergence, 62 g ai/ha, scale 0 (no effect) to 100 (complete control)
[13] = Postemergence, 125 g ai/ha, scale 0 to 100 (0 no effect, 100 complete control)
[14] = Postemergence, 250 g ai/ha, scale 0 to 100 (0 no effect, 100 complete control)
[15] = Preemergence, 31 g ai/ha, scale 0 to 100, 0 is no effect and 100 is complete control
[16] = Preemergence, 62 g ai/ha, scale 0 to 100 (0 no effect, 100 complete control)
[17] = Preemergence, 125 g ai/ha, scale 0 to 100 (0 no effect, 100 complete control)

CN1CC(c2ccc(F)c(F)c2)C(C(=O)Nc2cccc(F)c2F)C1=O (stereo not drawn) [Compound 303]
Plant response rating, Corn [1, 11]: 0
Plant response rating, Corn [1, 12]: 0
Plant response rating, Corn [1, 13]: 0
Plant response rating, Corn [1, 14]: 15
Corn plant response rating [1, 15]: 10
Corn plant response rating [1, 16]: 20
Plant response rating, Corn [1, 17]: 35
Plant response rating (scale of 0 to 100), Corn ([1]; Preemergence, 250 g ai/ha): 45
Plant response rating, Barnyardgrass [2, 11]: 10
Plant response rating, Barnyardgrass [2, 12]: 60
Plant response rating, Barnyardgrass [2, 13]: 70
Plant response rating, Barnyardgrass [2, 14]: 70
Barnyardgrass plant response rating [2, 15]: 90
Barnyardgrass plant response rating [2, 16]: 95
Plant response rating, Barnyardgrass [2, 17]: 95
Plant response rating (scale of 0 to 100; 0 is no effect, 100 is complete control), Barnyardgrass ([2]; Preemergence, 250 g ai/ha): 98
Plant response rating, Velvetleaf [3, 11]: 35
Plant response rating, Velvetleaf [3, 12]: 0
Plant response rating, Velvetleaf [3, 13]: 25
Plant response rating, Velvetleaf [3, 14]: 35
Velvetleaf plant response rating [3, 15]: 10
Velvetleaf plant response rating [3, 16]: 25
Plant response rating, Velvetleaf [3, 17]: 50
Plant response rating (scale of 0 to 100), Velvetleaf ([3]; Preemergence, 250 g ai/ha): 55
Galium plant response rating ([4]; 31 g ai/ha, scale 0 to 100, 0 is no effect and 100 is complete control): 90
Galium plant response rating ([4]; 62 g ai/ha, scale 0 to 100 (0 no effect, 100 complete control)): 0
Plant response rating, Galium ([4]; 125 g ai/ha, scale 0 to 100 (0 no effect, 100 complete control)): 85
Plant response rating (scale of 0 to 100), Galium ([4]; 250 g ai/ha): 85
Plant response rating, Nutsedge, Yellow [5, 11]: 0
Plant response rating, Nutsedge, Yellow [5, 12]: 0
Plant response rating, Nutsedge, Yellow [5, 13]: 0
Plant response rating, Nutsedge, Yellow [5, 14]: 0
Nutsedge, Yellow plant response rating [5, 15]: 0
Nutsedge, Yellow plant response rating [5, 16]: 0
Plant response rating, Nutsedge, Yellow [5, 17]: 0
Plant response rating (scale of 0 to 100), Nutsedge, Yellow ([5]; Preemergence, 250 g ai/ha): 25
Plant response rating, Morningglory [6, 11]: 10
Plant response rating, Morningglory [6, 12]: 60
Plant response rating, Morningglory [6, 13]: 0
Plant response rating, Morningglory [6, 14]: 0
Morningglory plant response rating [6, 15]: 0
Morningglory plant response rating [6, 16]: 0
Plant response rating, Morningglory [6, 17]: 15
Plant response rating (scale of 0 to 100), Morningglory ([6]; Preemergence, 250 g ai/ha): 45
Plant response rating, Pigweed ([7]; Postemergence, 125 g ai/ha, visual rating on 0 to 100 scale (0 no effect, 100 complete control), approx. 10 days): 40
Plant response rating, Pigweed ([7]; Postemergence, 500 g ai/ha, 0 to 100 scale (0 no effect, 100 complete control)): 60
Plant response rating, Pigweed ([7]; Preemergence, 125 g ai/ha, 0 to 100 scale where 0 is no effect and 100 is complete control): 20
Pigweed plant response rating ([7]; Preemergence, 500 g ai/ha, visual rating on 0 to 100 scale (0 no effect, 100 complete control)): 50
Plant response rating, Ryegrass, Italian [8, 11]: 0
Plant response rating, Ryegrass, Italian [8, 12]: 0
Plant response rating, Ryegrass, Italian [8, 13]: 0
Plant response rating, Ryegrass, Italian [8, 14]: 5
Ryegrass, Italian plant response rating [8, 15]: 30
Ryegrass, Italian plant response rating [8, 16]: 35
Plant response rating, Ryegrass, Italian [8, 17]: 70
Plant response rating (scale of 0 to 100), Ryegrass, Italian ([8]; Preemergence, 250 g ai/ha): 75
Plant response rating, Wheat ([9]; 125 g ai/ha, visual rating on 0 to 100 scale (0 no effect, 100 complete control), approx. 10 days): 50
Plant response rating, Wheat ([9]; 500 g ai/ha, 0 to 100 scale (0 no effect, 100 complete control)): 60
Plant response rating, Blackgrass [10, 11]: 0
Plant response rating, Blackgrass [10, 12]: 0
Plant response rating, Blackgrass [10, 13]: 0
Plant response rating, Blackgrass [10, 14]: 0
Blackgrass plant response rating [10, 15]: 0
Blackgrass plant response rating [10, 16]: 40
Plant response rating, Blackgrass [10, 17]: 80
Plant response rating (scale of 0 to 100), Blackgrass ([10]; Preemergence, 250 g ai/ha): 90
